Data reported in US12006332B2, “Aminopyrimidine derivatives as phosphatidylinositol phosphate kinase inhibitors” (HiberCell, Inc., priority 2019, dated 2024).

Assays:
[1] = target: T1, PIP4K2 B (Homo sapiens, UniProt P78356); experiment: Kinase Assay-PIP4K2 B (Transcreener FI); format: biochemical
T1 construct: made in house; host or cells: E. coli
T1 sequence (P78356 1-416): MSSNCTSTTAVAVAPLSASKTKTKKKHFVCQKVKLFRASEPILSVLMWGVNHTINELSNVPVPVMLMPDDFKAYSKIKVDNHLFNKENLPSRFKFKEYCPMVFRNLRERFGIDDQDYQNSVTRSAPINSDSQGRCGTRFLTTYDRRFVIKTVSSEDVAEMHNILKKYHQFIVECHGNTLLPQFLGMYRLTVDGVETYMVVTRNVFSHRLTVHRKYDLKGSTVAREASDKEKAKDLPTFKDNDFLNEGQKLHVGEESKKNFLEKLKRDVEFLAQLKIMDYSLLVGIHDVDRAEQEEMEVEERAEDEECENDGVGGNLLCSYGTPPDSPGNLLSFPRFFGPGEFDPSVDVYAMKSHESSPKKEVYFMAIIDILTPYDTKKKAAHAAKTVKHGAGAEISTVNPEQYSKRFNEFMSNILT
Excerpt: GST tagged PIP4KtypeIIA and B enzymes were overexpressed in E. Coli and purified to >80% homogeneity. Phosphatidyl inositol-5-phosphate (PI5P, Cat. #850152, Avanti Polar Lipids Inc.) was used as the lipid substrate and phosphatidyl ethanolamine (DOPE 18:1, Cat. #850725, Avanti Polar Lipids Inc.) was used as the carrier lipid for assays. Ultrapure ATP and GTP was purchased from Bellbrooke Labs. ADP Glo reagents were obtained from Promega. Transcreener FI reagent was obtained from Bellbrooke labs.
• 1. HEPES buffer mix: 200 mM HEPES pH 7.4, 50 mM MgCl2, 0.05% v/v triton X 100 • 2. HNE buffer: 20 mM HEPES, pH 7.4, 100 mM NaCl, 0.5 mM EGTA • 3. H:E buffer: 30 mM HEPES, pH 7.4, 1 mM EGTA
GST-tagged PIP4KtypeIIB (3.4 μl, 2.77 mg/mL) was diluted to 5 mL using HNE buffer to yield 5× enzyme stock (25 nM)
Lipid Preparation: In a 10 mL pyrex glass vial, […] were suspended in 2.5 mL of HEPES buffer mix and 2.5 mL of H:E buffer. The contents were mixed and sonicated for 3 min to yield a translucent lipid stock.
Compound Preparation: Compounds were stored as 5 mM stocks in neat DMSO as room temperature in glass vials. 5 mM stocks were diluted to 2 mM and then serially diluted (3×) in neat DMSO in 96 well polypropylene plates. From the serially diluted stocks, 3 μL was delivered into 250 μL of 25% DMSO (in water) to generate 5× compound stocks. Typically, the highest compound conc. was 24 μM.
The assay volume was kept at 25 μL. To each well of the reaction plate, 10 μL of lipid stock (1:1 ratio PI5P:DOPE) was delivered. This was followed by the addition of 5 μL of compound in 25% DMSO. Then, to each well, 5 μL of 25 nM (5×) typeIIB enzyme was delivered. The contents were mixed well and incubated for 1 h at 27° C. After 1 h, reaction was initiated by adding 5 μL of 500 μM GTP and the contents were mixed well with a multi-channel pipetteman. The final concentration of the reagents are as follows: 50 mM HEPES, pH 7.3, 10 mM MgCl2, 20 mM NaCl, 0.01% v/v triton-X100, 5% DMSO, 100 μM GTP, 80 μM (2 μg) PI5P, 2 μg DOPE, and 5 nM PIP4KIIB Typically, the highest conc. of compounds was 4.8 μM and the lowest conc. was 0.
After 2 h, the reaction was quenched by adding 25 μL of transcreener FI reagent. The contents were incubated at rt for 1 h and the Fluorescence (Ex: 584 Em: 623) was read using Molecular Devices Paradigm plate reader. […] The blanks were averaged and subtracted from all other wells. Using a calibration curve, RFU was converted to μM GDP (product). IC50 was calculated by plotting the residual activity (expressed as % No inhibitor control) vs. log [Inh. conc.].

[2] = system: MOLM-16; experiment: MOLM-16 EC50 assay; format: cell-based; settings: MOLM16
[3] = target: T2, PIP4K2A (Homo sapiens, UniProt P48426); experiment: Kinase Assay-PIP4K2 A (ADP-Glo); format: biochemical
T2 construct: made in house; host or cells: E. coli
T2 sequence (P48426 1-406): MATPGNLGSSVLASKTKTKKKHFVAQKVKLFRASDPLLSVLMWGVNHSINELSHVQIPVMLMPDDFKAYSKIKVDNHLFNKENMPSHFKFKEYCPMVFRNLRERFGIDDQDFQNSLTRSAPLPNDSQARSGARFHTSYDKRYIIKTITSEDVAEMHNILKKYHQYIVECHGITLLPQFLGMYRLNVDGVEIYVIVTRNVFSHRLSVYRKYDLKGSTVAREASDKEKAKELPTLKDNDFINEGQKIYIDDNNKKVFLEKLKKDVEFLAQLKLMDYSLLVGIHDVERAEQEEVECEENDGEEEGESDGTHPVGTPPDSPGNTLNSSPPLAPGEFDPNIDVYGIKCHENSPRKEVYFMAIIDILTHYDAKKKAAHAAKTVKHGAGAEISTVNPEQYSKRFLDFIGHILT
Procedure: Dilution series of the compounds were prepared in DMSO at 100 times the final assay concentration (n1=n0/3 in 10 points). The compounds were further diluted to three times the assay concentration in assay buffer (20 mM MOPS pH 7.2, 25 mM magnesium chloride, 0.005% Tween 20). 6 μL of the diluted compounds were added to a 384 well assay plate followed by 9 μL of a mix consisting of 4 nM PIP4K2A (full length protein, SignalChem) and 100 μM PI(5)P diC8 (Tebu-Bio). Enzyme and compounds were pre-incubated at room temperature for 15 minutes.
Then 3 μL of a solution containing 60 μM ATP (Promega) in assay buffer was added to the wells containing compound and enzyme and mixing was performed by pipetting several times. The reaction was incubated at room temperature for 1 h. Then 18 μL of ADP-Glo™ Reagent (Promega) was added to stop the kinase reaction and deplete the unconsumed ATP, mixing was performed by pipetting several times. The plate was incubated at room temperature for 40 minutes before addition of 36 μL of Kinase Detection Reagent (Promega) to convert ADP to ATP and introduce luciferase and luciferin to detect ATP. The reaction was incubated at room temperature for 40 minutes before the luminescence was measured in a in a Victor 3V 1420 multilabel counter (Perkin Elmer).
Percent inhibition of the compounds as compared to dimethyl sulfoxide treated control samples was calculated. Compound concentration versus percent inhibition were fitted to generate IC50 values. […]

Compound	IC50 [1] [nM]	EC50 [2] [nM]	IC50 [3] [nM]
COc1nc(Nc2cncc(N(C)CC(=O)N3CCNCC3)c2)ncc1-c1ccc(N2CCCC2=O)cc1 [Compound 36, 1-(4-{4-methoxy-2-[(5-{methyl[2-oxo-2-(piperazin-1-yl)ethyl]amino}pyridin-3-yl)amino]pyrimidin-5-yl}phenyl)pyrrolidin-2-one]	10 to 100	100 to 1000	1 to 10
COc1nc(Nc2cncc(OCCN3CCC(F)(F)C3)c2)ncc1-c1ccc(-c2nnccc2C)cc1 [Compound 40, N-{5-[2-(3,3-difluoropyrrolidin-1-yl)ethoxy]pyridin-3-yl}-4-methoxy-5-[4-(4-methylpyridazin-3-yl)phenyl]pyrimidin-2-amine]	10 to 100	100 to 1000	10 to 100
COc1nc(Nc2cncc(OCCN3CCC(F)(F)C3)c2)ncc1-c1ccc(N2CCCC2=O)cc1 [Compound 41, 1-{4-[2-({5-[2-(3,3-difluoropyrrolidin-1-yl)ethoxy]pyridin-3-yl}amino)-4-methoxypyrimidin-5-yl]phenyl}pyrrolidin-2-one]	10 to 100	10 to 100	10 to 100

Now from value to molecule:

IC50 [1] [nM]	EC50 [2] [nM]	IC50 [3] [nM]	Compound
10 to 100	10 to 100	10 to 100	COc1nc(Nc2cncc(N3CC[C@H](N(C)C)C3)c2)ncc1-c1ccc(-c2nnccc2C)cc1 [Compound 37, N-{5-[(3S)-3-(dimethylamino)pyrrolidin-1-yl]pyridin-3-yl}-4-methoxy-5-[4-(4-methylpyridazin-3-yl)phenyl]pyrimidin-2-amine]
10 to 100	10 to 100	10 to 100	COc1nc(Nc2cncc(N3CC[C@H](N(C)C)C3)c2)ncc1-c1ccc(N2CCCC2=O)cc1 [Compound 38, 1-{4-[2-({5-[(3S)-3-(dimethylamino)pyrrolidin-1-yl]pyridin-3-yl}amino)-4-methoxypyrimidin-5-yl]phenyl}pyrrolidin-2-one]
10 to 100	100 to 1000	10 to 100	COc1nc(Nc2cncc(N(C)CCC(=O)N3CCNCC3)c2)ncc1-c1ccc(N2CCCC2=O)cc1 [Compound 39, 1-(4-{4-methoxy-2-[(5-{methyl[3-oxo-3-(piperazin-1-yl)propyl]amino}pyridin-3-yl)amino]pyrimidin-5-yl}phenyl)pyrrolidin-2-one]
